Results published in patent publication US20220259593A1, “CONTROL OF MAMMALIAN GENE DOSAGE USING CRISPR” (The Regents of the University of California, priority 2019, published 2022).

What was measured:
[1] = test system: K562 CRISPRi cells; experiment: Perturb-seq pooled growth measurement (sgRNA counts, growth phenotype γ, relative activity); type: cell-based, human; settings: for gamma_day5 / gamma_day10: pooled growth phenotype γ of the Perturb-seq sgRNA; for gamma_day5: day 5, K562 CRISPRi cells; for gamma_day10: day 10, K562 CRISPRi cells; for relative_activity_day5: γ relative to perfectly matched sgRNA (_00) of the same gene, day 5
Outline: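 CRISPRi K562 cells from the Perturb-seq transduced pool; 500,000-cell samples taken days two, seven and twelve post-transduction. sgRNA amplicons from genomic DNA sequenced; growth phenotypes from normalized sgRNA abundances at days seven and twelve versus day two. Relative activity assigned from day seven (five days' growth).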

[2] = test system: K562 CRISPRi cells; experiment: as above; type: cell-based, human; settings: γ relative to perfectly matched sgRNA (_00) of the same gene, day 10

Row | Substance | gamma_day5 [1] | gamma_day10 [1] | relative_activity_day5 [1] | relative_activity_day10 [2]
1 | ATP5E_ −_57607036.23-P1P2_04 (guide GGTGTCCAGGAGCACTCTGT; listed as DNA, chemistry not fully specified) | −0.09793 | −0.1204 | 0.5536 | 0.5358
2 | HSPA5_ + _128003624.23-P1P2_08 (guide GAGCCGAGTGGGCGACGGTG; listed as DNA, chemistry not fully specified) | −0.7566 | −0.4435 | 1.012 | 1.038
3 | BCR_ + _23523092.23-P1P2_13 (guide GCGCGCGGGGCCCATCTCAG; listed as DNA, chemistry not fully specified) | −0.2183 | −0.1615 | 0.2591 | 0.3187
4 | POLR2H_ + _184081251.23-P1P2_11 (guide GGGGCCACGAGAGCAGCGGA; listed as DNA, chemistry not fully specified) | −0.9966 | −0.5467 | 0.8672 | 0.8554
5 | COX11_ + _53045977.23-P1P2_10 (guide GGCTCTGGCGTCCCGGATGG; listed as DNA, chemistry not fully specified) | −0.1247 | −0.1116 | 0.6866 | 0.3734
6 | HSPE1_ + _198365089.23-P1P2_14 (guide GGAGACTCGCAGTCCTGCCC; listed as DNA, chemistry not fully specified) | −0.2088 | −0.1965 | 0.2975 | 0.3465
7 | DUT_ + _48624411.23-P1P2_00 (guide GCGAGCGAGGAGACCACCGG; listed as DNA, chemistry not fully specified) | −0.7929 | −0.6457 | 1 | 1
8 | HSPA9_ −_137911079.23-P1P2_08 (guide GGAGCTGCTCGATGCGGTGG; listed as DNA, chemistry not fully specified) | −0.3582 | −0.2762 | 0.3771 | 0.4688
9 | CAD_ + _27440280.23-P1P2_00 (guide GGCTGGAGAGAAGCCGGGCG; listed as DNA, chemistry not fully specified) | −0.7714 | −0.684 | 1 | 1
10 | EIF2S1_ −_67827080.23-P1P2_02 (guide GAGCGCAGCGCACGCTGAGG; listed as DNA, chemistry not fully specified) | −0.7288 | −0.4556 | 0.8055 | 0.8838
11 | DBR1_ + _137893744.23-P1P2_07 (guide GTTTGCAGGGGTCTACACCC; listed as DNA, chemistry not fully specified) | −0.5167 | −0.468 | 1.134 | 0.9563
12 | CDC23_ −_137548987.23-P1P2_04 (guide GACAGCCAACGGGACCATGG; listed as DNA, chemistry not fully specified) | −0.8887 | −0.5364 | 0.7556 | 0.8148
13 | RPL9_ + _39460483.23-P1P2_01 (guide GGATGATTCTGTGCTCGTGG; listed as DNA, chemistry not fully specified) | −0.8528 | −0.4984 | 0.7661 | 0.7441
14 | RPS15_ −_1438413.23-P1P2_02 (guide GACCAAGGCGATCTCTTCTG; listed as DNA, chemistry not fully specified) | −0.4922 | −0.3145 | 0.7923 | 0.8366
15 | CAD_ + _27440280.23-P1P2_13 (guide GGCTGGAGAGAAGCCTGGCG; listed as DNA, chemistry not fully specified) | −0.1861 | −0.1648 | 0.2413 | 0.241
16 | HSPA5_ + _128003624.23-P1P2_04 (guide GAGCCGAGAAGGCGACGGTG; listed as DNA, chemistry not fully specified) | −0.7544 | −0.4225 | 1.009 | 0.989
17 | RPS14_ + _149829238.23-P1P2_02 (guide GAGGCCCTGGCGCGACAATC; listed as DNA, chemistry not fully specified) | −0.5845 | −0.3829 | 0.739 | 0.7666

Row | Substance | gamma_day5 [1] | gamma_day10 [1] | relative_activity_day5 [1] | relative_activity_day10 [2]
18 | MTOR_ + _11322547.23-P1P2_07 (guide GGGCAGGGGGTCTGAAGCGG; listed as DNA, chemistry not fully specified) | −0.5893 | −0.4799 | 0.8576 | 0.8541
19 | MTOR_ + _11322547.23-P1P2_00 (guide GGGCAGGGGGCCTGAAGCGG; listed as DNA, chemistry not fully specified) | −0.6872 | −0.5618 | 1 | 1
20 | GNB2L1_ + _180670873.23-P1P2_07 (guide GTGCAAGGCGGGGGCAGGAG; listed as DNA, chemistry not fully specified) | −0.38 | −0.2733 | 1.307 | 0.8948
21 | CDC23_ −_137548987.23-P1P2_11 (guide GACAGCCACCGGGACCACGG; listed as DNA, chemistry not fully specified) | −0.2745 | −0.2018 | 0.2334 | 0.3065
22 | ATP5E_ −_57607036.23-P1P2_00 (guide GGTGTCCAGGGGCACTCTGT; listed as DNA, chemistry not fully specified) | −0.1769 | −0.2247 | 1 | 1
23 | GATA1_ −_48645022.23-P1P2_06 (guide GTGAGCTTGCGACATCCCCA; listed as DNA, chemistry not fully specified) | −0.5073 | −0.3486 | 0.5269 | 0.5666
24 | GATA1_ −_48645022.23-P1P2_00 (guide GTGAGCTTGCCACATCCCCA; listed as DNA, chemistry not fully specified) | −0.9627 | −0.6153 | 1 | 1
25 | EIF2S1_ −_67827080.23-P1P2_06 (guide GAGCGAAGCGCGCGCTGAGG; listed as DNA, chemistry not fully specified) | −0.6688 | −0.3635 | 0.7393 | 0.7051
26 | BCR_ + _23523092.23-P1P2_00 (guide GCGCGCGGGGCCCGTCTCAG; listed as DNA, chemistry not fully specified) | −0.8426 | −0.5068 | 1 | 1
27 | RPS15_ −_1438413.23-P1P2_12 (guide GACCAAAGCGATCTCTTGTG; listed as DNA, chemistry not fully specified) | 0.0311 | 0.01173 | 0.05005 | 0.03119
28 | GATA1_ −_48645022.23-P1P2_08 (guide GTGAGCTTTCCACATCCCCA; listed as DNA, chemistry not fully specified) | −0.7632 | −0.4893 | 0.7928 | 0.7953
29 | SEC61A1_ −_127771295.23-P1_04 (guide GGCACTGAAGTGTCTCTCGG; listed as DNA, chemistry not fully specified) | −0.1539 | −0.1153 | 0.1673 | 0.2049
30 | CDC23_ −_137548987.23-P1P2_02 (guide GACAGCTACCGGGACCATGG; listed as DNA, chemistry not fully specified) | −1.087 | −0.5705 | 0.9238 | 0.8665
31 | TUBB_ + _30688126.23-P1_03 (guide GCGGCAGCAAGGTTCTGAGA; listed as DNA, chemistry not fully specified) | −0.6926 | −0.4959 | 0.7721 | 0.7085
32 | RPS14_ + _149829238.23-P1P2_00 (guide GAGGCCCGGGCGCGACAATC; listed as DNA, chemistry not fully specified) | −0.7908 | −0.4995 | 1 | 1
33 | RPS18_ + _33239917.23-P1P2_00 (guide GCTGCGATGCCGCTGGATCA; listed as DNA, chemistry not fully specified) | −0.8169 | −0.503 | 1 | 1
